From the kinase profiling compilation of Christmann-Franck et al. (2016)

Tests used:
Test in all cases: KINOMEscan competition binding
Conditions in all cases: compound 10.0 µM
PIK3C2G (human) = PIK3C2G (human) (UniProt O75747)
PIP4K2C (human) = PIP4K2C (human) (UniProt Q8TBX8)
PRKCI (human) = PRKCI (human) (UniProt P41743)
VRK2 (human) = VRK2 (human) (UniProt Q86Y07)
ICK (human) = ICK (human) (UniProt Q9UPZ9)
STK38 (human) = STK38 (human) (UniProt Q15208)
MAP2K5 (human) = MAP2K5 (human) (UniProt Q13163)
IRAK4 (human) = IRAK4 (human) (UniProt Q9NWZ3)
PKN3 (M.tuberculosis) = PKN3 (M.tuberculosis) (UniProt Q6P5Z2)
PIK3CA (human) = PIK3CA (human) (UniProt P42336)
STK32A (human) = STK32A (human) (UniProt Q8WU08)
NIM1 (human) = NIM1 (human) (UniProt Q8IY84)
[1] = tested on: PIK3CA (human), P42336 [C420R]
BTK (human) = BTK (human) (UniProt Q06187)
PRPF4B (human) = PRPF4B (human) (UniProt Q13523)
CDKL3 (human) = CDKL3 (human) (UniProt Q8IVW4)
PLK2 (human) = PLK2 (human) (UniProt Q9NYY3)
CDK4 CCND1 (human) = CDK4 CCND1 (human) (UniProt P11802+P24385)
MAP3K6 (human) = MAP3K6 (human) (UniProt O95382)
CPK1 (P.falciparum) = tested on: CPK1 (P.falciparum)
MAK (human) = MAK (human) (UniProt P20794)
DDR1 (human) = DDR1 (human) (UniProt Q08345)
EGFR (human) = EGFR (human) (UniProt P00533)
DSTYK (human) = DSTYK (human) (UniProt Q6XUX3)
IRAK1 (human) = IRAK1 (human) (UniProt P51617)
NEK4 (human) = NEK4 (human) (UniProt P51957)
TAOK2 (human) = TAOK2 (human) (UniProt Q9UL54)
CDK13 (human) = CDK13 (human) (UniProt Q14004)
TRPM6 (human) = TRPM6 (human) (UniProt Q9BX84)
STK39 (human) = STK39 (human) (UniProt Q9UEW8)
HUNK (human) = HUNK (human) (UniProt P57058)
[2] = tested on: EGFR (human), P00533 [L861Q]
PIP5K1C (human) = PIP5K1C (human) (UniProt O60331)
GRK4 (human) = GRK4 (human) (UniProt P32298)
CDK4 CCND3 (human) = CDK4 CCND3 (human) (UniProt P11802+P30281)
DYRK1A (human) = DYRK1A (human) (UniProt Q13627)
GRK1 (human) = GRK1 (human) (UniProt Q15835)
[3] = tested on: EGFR (human), P00533 [G719S]
SNRK (human) = SNRK (human) (UniProt Q9NRH2)
MET (human) = MET (human) (UniProt P08581)

Chain of ICK (human) (Q9UPZ9 whole entry, looked up): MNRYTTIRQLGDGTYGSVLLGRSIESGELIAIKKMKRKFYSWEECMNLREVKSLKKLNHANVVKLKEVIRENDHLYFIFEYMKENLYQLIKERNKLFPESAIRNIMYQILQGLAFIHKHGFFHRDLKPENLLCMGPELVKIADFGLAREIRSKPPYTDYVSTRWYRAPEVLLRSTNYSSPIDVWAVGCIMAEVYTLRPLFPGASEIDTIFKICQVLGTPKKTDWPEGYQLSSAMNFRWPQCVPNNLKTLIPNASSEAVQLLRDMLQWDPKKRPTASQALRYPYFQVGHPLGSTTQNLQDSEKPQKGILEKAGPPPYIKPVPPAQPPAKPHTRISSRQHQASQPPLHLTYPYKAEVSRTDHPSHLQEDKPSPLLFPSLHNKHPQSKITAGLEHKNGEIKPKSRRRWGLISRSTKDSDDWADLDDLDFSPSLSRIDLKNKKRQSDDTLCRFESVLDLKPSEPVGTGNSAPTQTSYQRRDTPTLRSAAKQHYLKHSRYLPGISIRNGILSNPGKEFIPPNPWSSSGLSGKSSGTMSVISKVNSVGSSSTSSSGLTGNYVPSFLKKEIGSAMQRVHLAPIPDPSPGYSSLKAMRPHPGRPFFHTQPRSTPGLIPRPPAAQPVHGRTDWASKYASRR
Chain of CDK13 (human) (Q14004 whole entry, looked up): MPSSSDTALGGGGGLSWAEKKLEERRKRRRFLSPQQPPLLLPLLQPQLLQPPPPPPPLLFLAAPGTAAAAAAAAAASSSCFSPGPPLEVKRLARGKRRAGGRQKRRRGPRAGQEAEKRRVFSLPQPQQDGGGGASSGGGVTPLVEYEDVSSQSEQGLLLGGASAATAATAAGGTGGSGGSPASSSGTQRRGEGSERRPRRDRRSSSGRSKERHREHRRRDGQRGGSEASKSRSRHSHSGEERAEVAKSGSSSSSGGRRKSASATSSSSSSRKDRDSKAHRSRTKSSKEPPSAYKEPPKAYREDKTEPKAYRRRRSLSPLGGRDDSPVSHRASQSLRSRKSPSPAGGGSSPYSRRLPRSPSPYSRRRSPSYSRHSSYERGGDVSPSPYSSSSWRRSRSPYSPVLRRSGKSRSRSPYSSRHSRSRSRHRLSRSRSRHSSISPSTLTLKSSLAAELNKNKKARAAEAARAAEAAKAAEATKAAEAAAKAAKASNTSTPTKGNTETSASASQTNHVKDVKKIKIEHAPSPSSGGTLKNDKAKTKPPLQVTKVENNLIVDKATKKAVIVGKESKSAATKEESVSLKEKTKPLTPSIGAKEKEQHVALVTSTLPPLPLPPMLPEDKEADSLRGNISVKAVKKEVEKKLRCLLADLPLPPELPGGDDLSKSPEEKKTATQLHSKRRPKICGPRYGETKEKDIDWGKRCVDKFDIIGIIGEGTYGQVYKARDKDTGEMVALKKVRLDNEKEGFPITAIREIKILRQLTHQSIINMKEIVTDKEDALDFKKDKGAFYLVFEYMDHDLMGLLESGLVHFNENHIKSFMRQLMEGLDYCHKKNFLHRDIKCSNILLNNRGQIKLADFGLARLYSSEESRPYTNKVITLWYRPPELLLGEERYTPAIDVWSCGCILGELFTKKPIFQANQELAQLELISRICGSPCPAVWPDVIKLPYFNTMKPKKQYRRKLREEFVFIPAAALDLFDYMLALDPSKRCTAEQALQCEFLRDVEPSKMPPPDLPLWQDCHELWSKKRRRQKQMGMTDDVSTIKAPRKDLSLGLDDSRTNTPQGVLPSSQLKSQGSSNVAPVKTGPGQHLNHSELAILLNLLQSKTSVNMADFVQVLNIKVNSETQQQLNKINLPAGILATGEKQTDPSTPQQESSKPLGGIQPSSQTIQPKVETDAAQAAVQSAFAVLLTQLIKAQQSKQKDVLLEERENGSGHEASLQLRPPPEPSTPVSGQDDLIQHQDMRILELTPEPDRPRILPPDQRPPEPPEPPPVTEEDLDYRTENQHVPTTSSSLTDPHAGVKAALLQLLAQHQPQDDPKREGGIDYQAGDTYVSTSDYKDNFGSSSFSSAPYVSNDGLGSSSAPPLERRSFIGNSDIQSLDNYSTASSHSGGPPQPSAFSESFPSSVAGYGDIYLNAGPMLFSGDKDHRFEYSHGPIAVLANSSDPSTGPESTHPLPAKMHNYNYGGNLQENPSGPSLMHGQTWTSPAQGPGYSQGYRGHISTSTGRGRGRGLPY
Chain of STK38 (human) (Q15208 whole entry, looked up): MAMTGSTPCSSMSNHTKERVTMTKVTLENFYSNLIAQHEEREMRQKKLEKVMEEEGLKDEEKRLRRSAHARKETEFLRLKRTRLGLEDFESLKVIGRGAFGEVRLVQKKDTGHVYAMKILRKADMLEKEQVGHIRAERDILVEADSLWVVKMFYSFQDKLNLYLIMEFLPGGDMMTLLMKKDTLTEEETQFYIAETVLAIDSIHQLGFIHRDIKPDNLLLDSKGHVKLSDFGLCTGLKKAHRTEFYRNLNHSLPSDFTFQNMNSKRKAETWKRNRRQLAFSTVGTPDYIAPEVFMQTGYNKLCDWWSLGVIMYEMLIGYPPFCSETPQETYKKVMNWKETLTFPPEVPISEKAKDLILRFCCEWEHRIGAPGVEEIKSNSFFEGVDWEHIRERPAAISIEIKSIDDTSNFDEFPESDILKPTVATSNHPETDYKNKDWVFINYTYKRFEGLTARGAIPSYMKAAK
Chain of DSTYK (human) (Q6XUX3 whole entry, looked up): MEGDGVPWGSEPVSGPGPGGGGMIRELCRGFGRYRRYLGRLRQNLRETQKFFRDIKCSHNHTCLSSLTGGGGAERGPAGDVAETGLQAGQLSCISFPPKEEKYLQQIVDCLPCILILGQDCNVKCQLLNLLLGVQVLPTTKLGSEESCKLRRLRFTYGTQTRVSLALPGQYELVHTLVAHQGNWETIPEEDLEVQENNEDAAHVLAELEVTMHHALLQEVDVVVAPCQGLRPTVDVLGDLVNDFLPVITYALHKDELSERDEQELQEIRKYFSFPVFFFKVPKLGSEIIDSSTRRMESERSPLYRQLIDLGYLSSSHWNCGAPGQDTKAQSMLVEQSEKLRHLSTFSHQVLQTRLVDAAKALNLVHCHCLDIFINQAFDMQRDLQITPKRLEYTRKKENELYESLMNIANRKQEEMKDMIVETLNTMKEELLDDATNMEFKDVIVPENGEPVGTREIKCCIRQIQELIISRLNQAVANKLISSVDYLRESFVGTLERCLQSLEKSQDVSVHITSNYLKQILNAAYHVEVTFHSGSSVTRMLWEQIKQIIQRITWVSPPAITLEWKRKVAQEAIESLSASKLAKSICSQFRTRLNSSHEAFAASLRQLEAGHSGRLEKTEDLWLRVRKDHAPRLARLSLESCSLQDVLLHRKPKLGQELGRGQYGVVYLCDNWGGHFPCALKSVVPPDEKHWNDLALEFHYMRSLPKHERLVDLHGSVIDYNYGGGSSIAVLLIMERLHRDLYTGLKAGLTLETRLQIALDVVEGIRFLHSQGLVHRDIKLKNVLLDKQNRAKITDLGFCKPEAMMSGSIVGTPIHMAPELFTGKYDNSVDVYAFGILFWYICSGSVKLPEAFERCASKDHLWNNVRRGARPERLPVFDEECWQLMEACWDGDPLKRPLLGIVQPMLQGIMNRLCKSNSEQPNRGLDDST
Chain of MAP3K6 (human) (O95382 whole entry, looked up): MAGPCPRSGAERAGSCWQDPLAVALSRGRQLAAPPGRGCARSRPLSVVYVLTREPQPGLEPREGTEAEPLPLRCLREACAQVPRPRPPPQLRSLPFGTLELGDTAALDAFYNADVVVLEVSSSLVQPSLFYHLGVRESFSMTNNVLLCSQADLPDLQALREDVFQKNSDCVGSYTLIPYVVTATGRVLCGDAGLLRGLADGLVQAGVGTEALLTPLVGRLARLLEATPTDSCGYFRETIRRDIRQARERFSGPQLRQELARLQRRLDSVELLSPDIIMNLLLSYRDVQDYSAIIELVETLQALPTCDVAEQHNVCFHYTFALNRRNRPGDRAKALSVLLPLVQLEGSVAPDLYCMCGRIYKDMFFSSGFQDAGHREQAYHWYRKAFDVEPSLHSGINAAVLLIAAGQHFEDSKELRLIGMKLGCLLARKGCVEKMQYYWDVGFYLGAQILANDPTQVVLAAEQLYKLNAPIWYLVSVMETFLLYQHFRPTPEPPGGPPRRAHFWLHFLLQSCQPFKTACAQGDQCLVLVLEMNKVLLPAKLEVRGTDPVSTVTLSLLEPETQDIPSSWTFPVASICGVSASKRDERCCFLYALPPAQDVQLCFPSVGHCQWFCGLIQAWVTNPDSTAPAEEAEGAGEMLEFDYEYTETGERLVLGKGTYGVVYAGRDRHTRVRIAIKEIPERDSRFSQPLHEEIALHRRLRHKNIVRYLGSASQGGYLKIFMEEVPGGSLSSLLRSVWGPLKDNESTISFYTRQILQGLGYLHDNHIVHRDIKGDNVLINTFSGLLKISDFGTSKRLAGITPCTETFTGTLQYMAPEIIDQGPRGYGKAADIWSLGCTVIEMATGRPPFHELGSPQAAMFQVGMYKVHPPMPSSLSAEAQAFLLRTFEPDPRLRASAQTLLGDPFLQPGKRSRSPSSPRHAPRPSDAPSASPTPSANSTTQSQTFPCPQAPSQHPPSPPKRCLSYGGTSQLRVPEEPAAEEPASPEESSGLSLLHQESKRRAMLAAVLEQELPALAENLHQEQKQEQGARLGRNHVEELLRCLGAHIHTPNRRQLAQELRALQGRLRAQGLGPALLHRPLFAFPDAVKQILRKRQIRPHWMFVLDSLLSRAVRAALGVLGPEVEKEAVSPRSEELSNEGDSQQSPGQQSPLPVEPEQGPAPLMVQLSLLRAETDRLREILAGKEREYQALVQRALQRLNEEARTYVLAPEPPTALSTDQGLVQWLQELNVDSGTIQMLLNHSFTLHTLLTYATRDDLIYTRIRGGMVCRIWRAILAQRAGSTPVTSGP

Structure (SMILES)	kinase still bound, per cent of control (PIK3C2G (human)) [%]	kinase still bound, per cent of control (PIP4K2C (human)) [%]	kinase still bound, per cent of control (PRKCI (human)) [%]	kinase still bound, per cent of control (VRK2 (human)) [%]	kinase still bound, per cent of control (ICK (human)) [%]	kinase still bound, per cent of control (STK38 (human)) [%]	kinase still bound, per cent of control (MAP2K5 (human)) [%]	kinase still bound, per cent of control (IRAK4 (human)) [%]	kinase still bound, per cent of control (PKN3 (M.tuberculosis)) [%]	kinase still bound, per cent of control (PIK3CA (human)) [%]	kinase still bound, per cent of control (STK32A (human)) [%]	kinase still bound, per cent of control (NIM1 (human)) [%]	kinase still bound, per cent of control [1] [%]	kinase still bound, per cent of control (BTK (human)) [%]	kinase still bound, per cent of control (PRPF4B (human)) [%]	kinase still bound, per cent of control (CDKL3 (human)) [%]	kinase still bound, per cent of control (PLK2 (human)) [%]	kinase still bound, per cent of control (CDK4 CCND1 (human)) [%]	kinase still bound, per cent of control (MAP3K6 (human)) [%]	kinase still bound, per cent of control (CPK1 (P.falciparum)) [%]	also measured
C=CC(=O)Nc1cccc(Nc2nc(N[C@H]3CC[C@H](N(C)C)CC3)nc3c2ncn3C(C)C)c1	100	66	93	11	100	19	59	2.5	82	100	89	66	89	35	90	100	52	40	86	98	kinase still bound, per cent of control (MAK (human)): 100%; kinase still bound, per cent of control (DDR1 (human)): 100%; kinase still bound, per cent of control (EGFR (human)): 100%; kinase still bound, per cent of control (DSTYK (human)): 86%; kinase still bound, per cent of control (IRAK1 (human)): 1.8%; kinase still bound, per cent of control (NEK4 (human)): 100%; kinase still bound, per cent of control (TAOK2 (human)): 66%; kinase still bound, per cent of control (CDK13 (human)): 40%; kinase still bound, per cent of control (TRPM6 (human)): 66%; kinase still bound, per cent of control (STK39 (human)): 51%; kinase still bound, per cent of control (HUNK (human)): 85%; kinase still bound, per cent of control [2]: 100%; kinase still bound, per cent of control (PIP5K1C (human)): 100%; kinase still bound, per cent of control (GRK4 (human)): 43%; kinase still bound, per cent of control (CDK4 CCND3 (human)): 23%; kinase still bound, per cent of control (DYRK1A (human)): 20%; kinase still bound, per cent of control (GRK1 (human)): 47%; kinase still bound, per cent of control [3]: 98%; kinase still bound, per cent of control (SNRK (human)): 68%; kinase still bound, per cent of control (MET (human)): 100%
C=CC(=O)Nc1cc(NC(=O)c2ccc(C)c(NC(=O)c3ccno3)c2)cc(C(F)(F)F)c1	100	90	100	100	75	90	80	99	75	76	100	98	82	100	100	90	100	100	83	94	kinase still bound, per cent of control (MAK (human)): 84%; kinase still bound, per cent of control (DDR1 (human)): 0.1%; kinase still bound, per cent of control (EGFR (human)): 79%; kinase still bound, per cent of control (DSTYK (human)): 100%; kinase still bound, per cent of control (IRAK1 (human)): 100%; kinase still bound, per cent of control (NEK4 (human)): 84%; kinase still bound, per cent of control (TAOK2 (human)): 87%; kinase still bound, per cent of control (CDK13 (human)): 100%; kinase still bound, per cent of control (TRPM6 (human)): 100%; kinase still bound, per cent of control (STK39 (human)): 86%; kinase still bound, per cent of control (HUNK (human)): 100%; kinase still bound, per cent of control [2]: 100%; kinase still bound, per cent of control (PIP5K1C (human)): 100%; kinase still bound, per cent of control (GRK4 (human)): 100%; kinase still bound, per cent of control (CDK4 CCND3 (human)): 95%; kinase still bound, per cent of control (DYRK1A (human)): 99%; kinase still bound, per cent of control (GRK1 (human)): 86%; kinase still bound, per cent of control [3]: 100%; kinase still bound, per cent of control (SNRK (human)): 100%; kinase still bound, per cent of control (MET (human)): 100%
